Data reported in patent US20240226109A1, “CO-THERAPY WITH VECTOR AND NICOTINIC AGONIST” (OYSTER POINT PHARMA, INC., priority 2021, published 2024).

Key:
[1] = target: T1, nAChR subtype alpha7 (Homo sapiens, UniProt P36544); assay: nAChR agonist response (evoked current compared with ACh response) in cells expressing a nAChR subtype; format: cell-based; conditions: for agonist characterization at nAChR subtype alpha7: response relative to ACh response
T1 construct: expressed in transfected cells
T1 sequence (P36544 23-502): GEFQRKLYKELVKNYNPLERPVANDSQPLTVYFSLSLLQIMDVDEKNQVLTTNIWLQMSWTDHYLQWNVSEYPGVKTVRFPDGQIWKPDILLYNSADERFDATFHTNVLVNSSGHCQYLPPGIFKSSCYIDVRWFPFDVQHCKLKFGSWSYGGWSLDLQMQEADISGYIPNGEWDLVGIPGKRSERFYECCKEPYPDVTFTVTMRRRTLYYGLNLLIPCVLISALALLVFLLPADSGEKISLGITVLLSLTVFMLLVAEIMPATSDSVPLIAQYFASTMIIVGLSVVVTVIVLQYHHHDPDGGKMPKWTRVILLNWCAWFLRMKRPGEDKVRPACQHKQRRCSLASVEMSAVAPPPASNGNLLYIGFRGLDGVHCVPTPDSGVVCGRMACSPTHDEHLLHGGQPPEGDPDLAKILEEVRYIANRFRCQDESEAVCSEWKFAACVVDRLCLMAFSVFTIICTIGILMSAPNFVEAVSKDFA
From the text: (§1) In general, a nAChR agonist is a full agonist if it evokes a response upon binding to a given receptor that is equal or greater to that of ACh.
(§2) nAChR agonist response, from which receptor activation can be determined can, for example, be generated using an appropriate cell-based assay. Cells designed to express a particular nAChR receptor subtype and generate an electrical current response when bound to and activated by a nAChR agonist can be used to characterize the agonist profile of a compound and the amount of receptor activation thus determined. An example of a generic protocol is described below.
(§3) Cells that express a particular human nAChR subtype are first exposed to ACh. ACh binds and activates the receptor, thereby evoking a current. […] This current is recorded as the ACh response and serves as the 100% nAChR agonist response and to which responses to other nAChR agonists are compared. After washing, the cells are exposed to a nAChR agonist at various concentrations (e.g., 0.1, 0.3, 1, 3, 10, 30, 100, and 300 micromolar). The current evoked by exposure to the nAChR agonist is measured and recorded for each nAChR concentration. This nAChR agonist response data is then normalized to unity versus the maximal ACh evoked current and plotted as a function of the logarithm of the nAChR agonist concentration. The nAChR agonist response is then calculated as a percentage of the ACh response.
(§4) A nAChR agonist evoking a response equal to or greater than the maximum ACh response determined at the same receptor type is a full agonist. In some cases, a nAChR agonist evoking a response of less than 100% of the ACh response may still be characterized a full agonist, taking into account experimental variability. […] In some cases, a nAChR agonist evoking 90% of the ACh response or greater is considered a full agonist. […] In some cases, a nAChR agonist evoking 80% of the ACh response or greater is considered a full agonist.

[2] = test system: tear film; assay: hNGF concentration in tear film collected on Schirmer test strips (ELISA), with and without intranasal varenicline; format: in vivo, Dutch-Belted rabbits; conditions: rabbits given rAAV9.hNGF intralacrimally; intranasal varenicline on days 21, 28 and 41
Experimental: FIG. 8 is a plot showing the concentration of hNGF in tear film in animals treated with AAV.hNGF and varenicline. Protein concentration was measured using Schirmer tear strips to collect tear film from Dutch-belted rabbits at the indicated number of days following intralacrimal administration of AAV2.hNGF, AAV5.hNGF, or AAV9.hNGF. At days 21, 28, and 41, tear film was collected following the intranasal administration of the tear inducing agent, varenicline. Control animals had no injection of AAV.
A Schirmer tear test was performed to collect eye moisture from the animals on Days 7, 14, 21, 28, 41, and 42. Test strips were placed inside the lower eyelid for approximately 1 minute. The paper was removed and placed into separate tubes and frozen at −80° C. for subsequent analysis. Schirmer test strips were collected following intranasal administration of varenicline on Days 21, 28, and 41. Test strips were placed inside the lower eyelid for approximately 1 minute. The paper was removed and placed into separate tubes and frozen at −80° ° C. for subsequent analysis. Protein content absorbed onto Schirmer's test strips was analyzed for concentration of hNGF by ELISA assay.
A Schirmer tear test was performed to collect eye moisture from the animals on Days 7, 14, 21, 28, 41, and 42. […] Protein content absorbed onto Schirmer's test strips was analyzed for concentration of hNGF by ELISA assay.

[3] = target: T2, nAChR subtype alpha6beta2 (Homo sapiens, UniProt P17787+Q15825); assay: nAChR agonist response (evoked current compared with ACh response) in cells expressing a nAChR subtype; format: cell-based; conditions: response relative to ACh response
T2 construct: expressed in transfected cells
T2 sequence (Q15825 26-494): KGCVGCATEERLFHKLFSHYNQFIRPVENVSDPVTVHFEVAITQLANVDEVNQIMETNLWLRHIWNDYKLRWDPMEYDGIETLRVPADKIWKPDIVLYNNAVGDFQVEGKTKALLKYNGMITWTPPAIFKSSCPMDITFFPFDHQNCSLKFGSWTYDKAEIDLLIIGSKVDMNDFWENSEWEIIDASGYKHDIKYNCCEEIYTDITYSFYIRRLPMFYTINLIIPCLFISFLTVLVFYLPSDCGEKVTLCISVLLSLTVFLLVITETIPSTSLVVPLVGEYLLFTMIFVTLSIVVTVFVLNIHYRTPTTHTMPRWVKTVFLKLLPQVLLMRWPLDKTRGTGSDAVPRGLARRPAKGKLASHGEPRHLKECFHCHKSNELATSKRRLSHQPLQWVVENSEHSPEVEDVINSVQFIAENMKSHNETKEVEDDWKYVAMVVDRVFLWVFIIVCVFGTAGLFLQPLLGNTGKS
T2 sequence (P17787 26-502): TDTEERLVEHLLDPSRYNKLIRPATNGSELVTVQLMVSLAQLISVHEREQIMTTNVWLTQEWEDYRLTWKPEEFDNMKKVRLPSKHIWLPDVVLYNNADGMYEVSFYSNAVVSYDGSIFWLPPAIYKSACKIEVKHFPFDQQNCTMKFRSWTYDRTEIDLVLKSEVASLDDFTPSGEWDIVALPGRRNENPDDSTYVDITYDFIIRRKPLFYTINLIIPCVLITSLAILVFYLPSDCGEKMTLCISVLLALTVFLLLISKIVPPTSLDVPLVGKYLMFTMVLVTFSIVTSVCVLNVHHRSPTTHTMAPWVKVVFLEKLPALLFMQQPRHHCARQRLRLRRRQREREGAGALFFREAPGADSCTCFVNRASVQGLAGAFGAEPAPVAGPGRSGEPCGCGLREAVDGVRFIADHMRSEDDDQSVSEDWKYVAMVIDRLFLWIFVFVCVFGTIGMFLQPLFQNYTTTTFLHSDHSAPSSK
From the text: as §1, §2
(§5) Cells that express a particular human nAChR subtype are first exposed to ACh. ACh binds and activates the receptor, thereby evoking a current. The concentration of the ACh is chosen to elicit the maximum response of the receptor (e.g., 1280 micromolar ACh). This current is recorded as the ACh response and serves as the 100% nAChR agonist response and to which responses to other nAChR agonists are compared. […] The current evoked by exposure to the nAChR agonist is measured and recorded for each nAChR concentration. […] The nAChR agonist response is then calculated as a percentage of the ACh response.
(§6) A nAChR agonist evoking a response equal to or greater than the maximum ACh response determined at the same receptor type is a full agonist. […]

[4] = target: T3, nAChR subtype alpha4beta2 (Homo sapiens, UniProt P17787+P43681); assay: as above; format: cell-based; conditions: response relative to ACh response
T3 construct: expressed in transfected cells
T3 sequence (P43681 29-627 limits assumed): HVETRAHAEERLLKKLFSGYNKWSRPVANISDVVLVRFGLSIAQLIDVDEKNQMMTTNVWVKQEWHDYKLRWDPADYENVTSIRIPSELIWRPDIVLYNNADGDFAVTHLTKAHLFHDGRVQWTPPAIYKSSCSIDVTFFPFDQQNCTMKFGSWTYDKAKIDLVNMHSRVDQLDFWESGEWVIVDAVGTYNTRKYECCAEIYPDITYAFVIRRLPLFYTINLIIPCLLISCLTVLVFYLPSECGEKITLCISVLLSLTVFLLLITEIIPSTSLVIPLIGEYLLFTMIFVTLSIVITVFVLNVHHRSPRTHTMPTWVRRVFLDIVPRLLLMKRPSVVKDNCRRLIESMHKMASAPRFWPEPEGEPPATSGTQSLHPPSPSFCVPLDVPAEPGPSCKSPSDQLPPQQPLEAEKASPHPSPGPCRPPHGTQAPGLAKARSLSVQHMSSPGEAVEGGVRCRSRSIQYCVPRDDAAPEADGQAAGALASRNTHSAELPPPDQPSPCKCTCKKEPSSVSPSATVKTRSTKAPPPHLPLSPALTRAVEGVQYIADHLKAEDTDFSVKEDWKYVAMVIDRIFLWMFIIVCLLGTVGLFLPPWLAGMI
T3 sequence (P17787 26-502): as the sequence (P17787 26-502) above
From the text: as §1, §2, §3, §4

[5] = target: T4, nAChR subtype alpha3beta4 (Homo sapiens, UniProt P30926+P32297); assay: as above; format: cell-based; conditions: response relative to ACh response
T4 construct: expressed in transfected cells
T4 sequence (P32297 32-505): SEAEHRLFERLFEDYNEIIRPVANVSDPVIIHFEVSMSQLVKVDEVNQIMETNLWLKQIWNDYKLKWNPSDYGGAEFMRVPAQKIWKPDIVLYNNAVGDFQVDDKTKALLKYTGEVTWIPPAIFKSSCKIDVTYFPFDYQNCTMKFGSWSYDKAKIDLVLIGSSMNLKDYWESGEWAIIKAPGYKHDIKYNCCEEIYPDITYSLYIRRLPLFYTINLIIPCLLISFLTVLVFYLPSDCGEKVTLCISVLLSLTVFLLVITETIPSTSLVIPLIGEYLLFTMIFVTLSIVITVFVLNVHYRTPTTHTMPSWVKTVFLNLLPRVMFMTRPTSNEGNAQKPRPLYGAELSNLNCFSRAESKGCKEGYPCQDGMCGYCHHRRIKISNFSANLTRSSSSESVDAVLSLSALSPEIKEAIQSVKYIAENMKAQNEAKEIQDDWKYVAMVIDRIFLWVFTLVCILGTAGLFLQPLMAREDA
T4 sequence (P30926 22-498): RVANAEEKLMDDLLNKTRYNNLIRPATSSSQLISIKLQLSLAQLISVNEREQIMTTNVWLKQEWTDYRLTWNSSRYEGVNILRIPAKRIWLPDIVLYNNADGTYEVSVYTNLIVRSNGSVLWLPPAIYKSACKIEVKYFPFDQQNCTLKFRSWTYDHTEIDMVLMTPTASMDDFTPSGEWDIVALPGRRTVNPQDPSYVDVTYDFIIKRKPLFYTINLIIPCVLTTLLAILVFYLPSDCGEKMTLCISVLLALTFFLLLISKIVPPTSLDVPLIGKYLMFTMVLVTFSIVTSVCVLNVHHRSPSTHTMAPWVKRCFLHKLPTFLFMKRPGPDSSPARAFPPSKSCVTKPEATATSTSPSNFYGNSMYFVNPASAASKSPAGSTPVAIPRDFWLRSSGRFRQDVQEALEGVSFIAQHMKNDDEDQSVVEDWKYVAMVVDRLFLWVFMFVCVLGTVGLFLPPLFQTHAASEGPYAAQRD
From the text: as §1, §2, §3, §4

[6] = test system: T5, nAChR subtype alpha3alpha5beta4 (Homo sapiens); assay: as above; format: cell-based; conditions: response relative to ACh response
T5 construct: expressed in transfected cells
T5 sequence (P32297 32-505): as the sequence (P32297 32-505) above
T5 sequence (P30532 23-468 partner): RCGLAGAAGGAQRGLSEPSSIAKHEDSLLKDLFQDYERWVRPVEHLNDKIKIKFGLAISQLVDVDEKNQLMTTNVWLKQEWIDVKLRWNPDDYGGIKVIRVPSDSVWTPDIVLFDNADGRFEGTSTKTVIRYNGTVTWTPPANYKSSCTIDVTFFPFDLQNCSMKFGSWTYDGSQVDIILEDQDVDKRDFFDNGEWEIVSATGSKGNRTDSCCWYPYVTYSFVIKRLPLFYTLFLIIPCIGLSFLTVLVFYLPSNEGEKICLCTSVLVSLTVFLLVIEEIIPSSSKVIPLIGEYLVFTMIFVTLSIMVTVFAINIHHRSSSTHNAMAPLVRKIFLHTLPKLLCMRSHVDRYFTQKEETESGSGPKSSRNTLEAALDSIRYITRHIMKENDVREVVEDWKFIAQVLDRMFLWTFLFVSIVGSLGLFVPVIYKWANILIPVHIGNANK
T5 sequence (P30926 22-498, further chain): as the sequence (P30926 22-498) above
From the text: as §1, §2, §3, §4

[7] = target: T6, nAChR subtype alpha4alpha6beta2 (Homo sapiens, UniProt P17787+P43681+Q15825); assay: as above; format: cell-based; conditions: response relative to ACh response
T6 construct: expressed in transfected cells
T6 sequence (P43681 29-627 limits assumed): as the sequence (P43681 29-627 limits assumed) above
T6 sequence (Q15825 26-494): as the sequence (Q15825 26-494) above
T6 sequence (P17787 26-502): as the sequence (P17787 26-502) above
From the text: as §1, §2, §3, §4

[8] = test system: tear film; assay: Mesoscale discovery (MSD) assay of hNGFβ in porcine tears after lacrimal gland transduction; format: in vivo, pigs (Sus scrofa domesticus); conditions: pigs given AAV9-hNGFβ; Day 28 (0.03 mg varenicline solution each nostril) vs Day 21 and Day 35 (no nasal spray); data not shown
[9] = target: T7, nAChR subtype alpha3beta2 (Homo sapiens, UniProt P17787+P32297); assay: nAChR agonist response (evoked current compared with ACh response) in cells expressing a nAChR subtype; format: cell-based; conditions: response relative to ACh response
T7 construct: expressed in transfected cells
T7 sequence (P32297 32-505): as the sequence (P32297 32-505) above
T7 sequence (P17787 26-502): as the sequence (P17787 26-502) above
From the text: as §1, §2, §5, §6

[10] = test system: subjects with dry eye; conditions: 28-day course of 0.1% ophthalmic formulation, Phase II; cited from earlier work

Row | Molecule | percent of the maximal ACh-evoked current ([1]; 300 micromolar concentration, subtype alpha7) [%] | increase of hNGF concentration in the Schirmer strip over the levels measured at the 7 and 14 day collections [2] | agonist characterization at nAChR subtype alpha6beta2 [3] | agonist characterization at nAChR subtype alpha7 [1] | agonist characterization at nAChR subtype alpha4beta2 [4] | agonist characterization at nAChR subtype alpha3beta4 [5] | agonist characterization at nAChR subtype alpha3alpha5beta4 [6] | agonist characterization at nAChR subtype alpha4alpha6beta2 [7] | effect of nasal spray on tear hNGFβ protein concentration [8] | agonist characterization at nAChR subtype alpha3beta2 [9] | effect on corneal staining [10] | effect on ocular discomfort [10]
1 | C(=C\[C@H]1CCNC1)/c1cncnc1.O=C(O)CC(O)(CC(=O)O)C(=O)O [compound 1 citrate, (R)-5-((E)-2-pyrrolidin-3-ylvinyl)pyrimidine mono-citrate] | 25 | – | – | – | – | – | – | – | – | – | – | –
2 | O=C(O)C(O)C(O)C(=O)O.c1cnc2cc3c(cc2n1)C1CNCC3C1 [Varenicline, varenicline] | – | up to 3 fold | partial agonist | full agonist | partial agonist | partial agonist | partial agonist | partial agonist | increased tear hNGFβ protein concentration | – | – | –
3 | C(=C\[C@H]1CCNC1)/c1cncnc1 [Compound 1, (R)-5-((E)-2-pyrrolidin-3-ylvinyl)pyrimidine] | – | – | – | weak partial agonist | full agonist | full agonist | full agonist | full agonist | – | partial agonist | – | –
4 | Tβ4: 43-amino acid peptide, SEQ ID NO: 26; tested as 0.1% Tβ4 ophthalmic formulation (SDKPDMAEIEKFDKSKLKKTETQEKNPLPSKETIEQEKQAGES; listed as Homo sapiens) | – | – | – | – | – | – | – | – | – | – | significant positive effects | significant positive effects
